{
  "source": "patent US8236339B2",
  "about": "“Therapeutic delivery of carbon monoxide” (priority 2001, dated 2012)",
  "key": {"[1]": {"test_system": "deoxymyoglobin (deoxy-Mb)", "experiment": "Light-induced CO release diffusing through a membrane into myoglobin solution", "type": "biochemical, horse", "conditions": "for MbCO formation upon illumination: carbonyl solution exposed to cold light, gas diffusing through membrane", "description": "Therefore release of CO was induced by exposing these metal carbonyl complexes to a cold light source and allowing the gas to diffuse through a membrane before reacting with myoglobin as shown in FIG. 1.\nFive hundred microliters of iron pentacarbonyl ([Fe(CO)5], 99.9%) or 1 ml of dimanganese decacarbonyl ([Mn2(CO)10], 13 mM in DMSO) (see also chemical structure) were placed as carbonyl solution 2 in a plastic tube 1. A cell culture insert 3 (Costar) was sealed on top in order to create two separate chambers with a 0.6 cm air space between the solution 2 and an insert membrane 6 (Anapore™ 0.4 μm). 1.5 ml of deoxy-Mb solution (66 μM) was placed in the insert which was covered with Parafilm™ 5. The carbonyl solution was then exposed to cold light from a source 7 to stimulate CO release, allowing the gas to diffuse through the membrane 6 into the myoglobin solution 4. Aliquots of the myoglobin solution 4 were taken at different times and the conversion of deoxy-Mb to MbCO measured spectrophotometrically."}, "isolated rat hearts": {"test_system": "isolated rat hearts", "conditions": "L-NAME 25 μM perfusion", "description": "Langendorff heart preparations were performed using male Lewis rats (300-350 g) as previously described by our group (35). […] (pH 7.4). Coronary perfusion pressure (CPP), a parameter indicative of coronary vessel contractility, was continuously measured by a pressure transducer connected to the aortic cannula and data analyzed with an Acknowledge software (BIOPAC System Inc.).\nHearts removed either from control rats (vehicle-treated) or from animals that were pre-treated with the heme oxygenase-1 inducer hemin (75 μmol/kg, i.p.) the day before, were initially equilibrated for 20 min on the Langendorff apparatus and then perfused with L-NAME (25 μM final concentration) to elicit vasoconstriction. The extent of CPP increase by L-NAME was also monitored over time in hemin-treated animals that received a heme oxygenase inhibitor (SnPPIX, 40 μmol/kg) 1 h prior to heart excision and in control hearts that were perfused with buffer supplemented with [Mn2(CO)10] (13 μM final concentration). Since [Mn2(CO)10] releases CO only by photodissociation, Krebs buffer containing [Mn2(CO)10] was exposed to a cold light source immediately before entering the aortic cannula."}, "[2]": {"test_system": "deoxymyoglobin (deoxy-Mb)", "experiment": "Myoglobin assay: conversion of deoxy-Mb to MbCO on direct addition of metal carbonyl", "type": "biochemical, horse", "conditions": "direct addition to myoglobin solution (66 μM), no light", "description": "The release of CO from metal carbonyl complexes was assessed spectrophotometrically by measuring the conversion of deoxymyoglobin (deoxy-Mb) to carbonmonoxy myoglobin (MbCO). MbCO has a distinctive absorption spectrum between 500 and 600 nm, and changes at 540 nm were used to quantify the amount of CO liberated. Myoglobin solutions (66 μM final concentration) were prepared freshly by dissolving the protein in 0.04 M phosphate buffer (pH 6.8). Sodium dithionite (0.1%) was added to convert myoglobin to deoxy-Mb prior to each reading. All the spectra were measured using a Helios a spectrophotometer.\nVarious metal carbonyl complexes were tested for their ability to elicit MbCO formation when added directly to a deoxy-Mb solution. To different extents, [Ru(CO)3Cl2]2, [Ru(CO)2(DMSO)2Cl2], [Ru(CO)3Cl2(cytosine)] and […] all released CO when added directly to the Mb solution.\nThe metal carbonyl complex was solubilized in DMSO (9.7 mM stock solution), aliquots of 2 to 32 μl were added directly to 1 ml of deoxy-Mb solutions (66 μM) and absorption spectrum determined immediately after mixing the samples by inversion."}, "[3]": {"test_system": "Rat vascular smooth muscle cells", "experiment": "Cell viability of vascular smooth muscle cells (colorimetric assay)", "type": "cell-based", "conditions": "0-100 μM, 24 h in complete medium", "description": "Rat vascular smooth muscle cells were obtained from the Coriell Cell Repository (Camden, N.J., USA) and grown in Dulbecco's […] (MEM) supplemented with 20% foetal calf serum, 2×MEM vitamins, 2×MEM non-essential and essential amino acids, penicillin (100 units/ml) and streptomycin (0.1 mg/ml). Confluent cells were treated with different concentrations of metal carbonyl (introduced as DMSO solution—see section B) for various times and cell viability was assessed using a colorimetric assay kit from Promega (Madison, Wis., USA) as previously described (47) after 3 or 24 h incubation, or after 3 h exposure to the agents followed by 21 h incubation in complete media. Results are expressed as the mean±s.e.m. of 6 independent experiments and differences were considered statistically significant at P<0.05 (*)."}, "HO-1": {"test_system": "HO-1", "experiment": "Expression of heme oxygenase-1 in rat hearts (immunostaining, Northern blot)", "type": "in vivo", "conditions": "24 h after hemin treatment, i.p.", "description": "For immunohistochemistry analysis, sections of heart muscles (5 μm thickness) were treated with 0.3% H2O2 in methanol to block endogenous peroxidase activity. Immunohistochemical staining was performed using rabbit polyclonal antibody against HO-1 (1:1000 dilution) as previously described (23). The presence of HO-1 was indicated by the development of a brown color. For Northern blot analysis, cardiac tissue was ground in a mortar under liquid nitrogen and suspended in guanidinium thiocyanate lysis buffer, Total RNA was then extracted using a modification of the method described by Chomczynski and Sacchi (49). RNA was run on a 1.3% denaturing agarose gel containing 2.2 M formaldehyde and transferred onto a nylon membrane overnight. The membrane was hybridized using [α-^32P]dCTP-labelled cDNA probes to rat HO-1 and GAPDH genes and bands analyzed using a densitometer as previously described (23, 50).\nHearts were removed from Lewis rats 24 h after treatment with vehicle (control) or hemin ([…], i.p.) and immunostaining for HO-1 was assessed. For Northern blot analysis, rats were treated with hemin (75 μmol/kg, i.p.) and hearts removed at different time points to assess HO-1 mRNA levels (+ve, positive control)."}, "[4]": {"experiment": "L-NAME-induced increase in mean arterial pressure in anaesthetised Lewis rats", "type": "in vivo, rat", "conditions": "L-NAME 30 μmol/kg i.v.; [Ru(CO)3Cl2]2 60 μmol/kg i.v. 1 h before; hemin 75 μmol/kg i.p. 24 h before; SnPPIX 40 μmol/kg i.p.", "description": "Lewis rats (280-350 g) were anaesthetised by intramuscular injection of 1 ml/kg Hypnorm (fentanyl 0.315 mg/ml and fluanisone 10 mg/ml) followed 5 min later by an intraperitoneal injection of 5 mg/kg diazepam. Specially designed femoral artery and venous catheters were then surgically implanted as previously described (40). The arterial cannula was connected to a Grass pressure transducer and blood pressure monitored continuously using a polygraph recorder. Experiments were conducted on anaesthetized animals and recordings were made within 30 min of the surgical procedure.\nControl rats (vehicle-treated) and animals that were pre-treated with hemin (75 μmol/kg, i.p) 24 h prior to blood pressure monitoring were then administered with an intravenous injection of 30 μmol/Kg L-NAME to elicit an increase in mean arterial pressure. The extent of blood pressure increase by L-NAME was also monitored over time in hemin-treated animals that received SnPPIX (40 μmol/kg, i.p.) and in control rats previously injected with [Ru(CO)3Cl2]2 (60 μmol/kg, i.v.). In these two groups, SnPPIX or [Ru(CO)3Cl2]2 were administered to animals 1 h prior to L-NAME injection."}},
  "note": "Like-named read-outs stand apart in the source and are kept apart here.",
  "data": [
    {"smiles": "[C-]#[O+].[C-]#[O+].[C-]#[O+].[C-]#[O+].[C-]#[O+].[C-]#[O+].[C-]#[O+].[C-]#[O+].[C-]#[O+].[C-]#[O+].[Mn].[Mn]", "note": "[[Mn2(CO)10], dimanganese decacarbonyl]", "values": [
      {"measurement": "time to complete saturation of the myoglobin solution", "setting": "[1]; 13 μmol/ml, continuous exposure to light", "result": "approximately 40 min"},
      {"measurement": "MbCO formation upon illumination", "setting": "[1]", "result": "gradual increase in MbCO formation observed over time"},
      {"measurement": "effect on L-NAME-mediated vasoconstriction / rise in CPP", "setting": "isolated rat hearts; listed as (Mn2(CO)10)", "result": "unaffected"},
      {"measurement": "effect on L-NAME-mediated vasoconstriction / rise in CPP", "setting": "isolated rat hearts; listed as [Mn2(CO10]", "result": "significantly delayed vasoconstriction and maintained CPP at much lower levels at the end of perfusion"},
      {"measurement": "MbCO formation / CO release when added directly to deoxy-Mb solution", "setting": "[2]", "result": "did not result in any appreciable formation of carbonmonoxy myoglobin"},
      {"measurement": "cytotoxicity on smooth muscle cells", "setting": "[3]", "result": "no major cytotoxicity"}
    ]},
    {"smiles": "[C-]#[O+].[C-]#[O+].[C-]#[O+].[C-]#[O+].[C-]#[O+].[Fe]", "note": "[[Fe(CO)5], iron pentacarbonyl]", "values": [
      {"measurement": "MbCO formation upon illumination", "setting": "[1]", "result": "gradual increase in MbCO formation observed over time"},
      {"measurement": "MbCO formation / CO release when added directly to deoxy-Mb solution", "setting": "[2]", "result": "did not result in any appreciable formation of carbonmonoxy myoglobin"}
    ]},
    {"smiles": "C=CC1=C(C)c2cc3[n-]c(cc4[n-]c(cc5nc(cc1n2)C(C)=C5C=C)c(C)c4CCC(=O)O)c(CCC(=O)O)c3C.[Cl-].[Fe+3]", "note": "[hemin, ferriprotoporphyrin IX chloride]", "values": [
      {"measurement": "effect on L-NAME-mediated vasoconstriction / rise in CPP", "setting": "isolated rat hearts", "result": "markedly attenuated"},
      {"measurement": "HO-1 protein and mRNA expression in hearts", "setting": "HO-1", "result": "highly expressed"},
      {"measurement": "effect on L-NAME-induced increase in blood pressure", "setting": "[4]", "result": "significant suppression"}
    ]}
  ]
}
